Experimental data from patent US9050295B2, “Composition for treatment of tuberculosis” (ETH Zurich, priority 2007, dated 2015).

Molecular target: EthR-VP16 binding to PethR (Mycobacterium bovis, UniProt Q7TVI1)
Type: cell-based, E. coli BL21(DE3)

EthR-VP16 binding to PethR, sequence (Q7TVI1 whole entry, looked up): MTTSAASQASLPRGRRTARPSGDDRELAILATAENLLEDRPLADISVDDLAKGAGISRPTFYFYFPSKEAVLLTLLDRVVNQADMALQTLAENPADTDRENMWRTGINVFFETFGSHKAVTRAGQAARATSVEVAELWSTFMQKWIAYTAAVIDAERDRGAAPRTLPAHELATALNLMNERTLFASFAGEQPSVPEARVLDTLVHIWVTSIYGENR

CCCC(=O)OCCc1ccccc1 [2-Phenylethyl butyrate]
green fluorescence (EthR-controlled GFP expression): adjustable green fluorescence
